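Method: 48-hour compound exposure of cells in 96-well plates, five concentrations, linear interpolation of endpoints. At the GI50, growth is halved. TGI denotes the concentration required for complete inhibition of growth.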
Legend:
Assay in all cases: DTP human tumour cell line panel, 48 h
UACC-62 melanoma = test system: UACC-62 melanoma
786-0 renal = test system: 786-0 renal
HCT-116 colon = test system: HCT-116 colon
SR leukemia = test system: SR leukemia
UACC-257 melanoma = test system: UACC-257 melanoma
HCC-2998 colon = test system: HCC-2998 colon
NCI-H23 lung = test system: NCI-H23 lung
SF-539 CNS = test system: SF-539 CNS
OVCAR-8 ovarian = test system: OVCAR-8 ovarian
MDA-MB-231 breast = test system: MDA-MB-231 breast
NCI-H522 lung = test system: NCI-H522 lung
SNB-19 CNS = test system: SNB-19 CNS
A498 renal = test system: A498 renal
CCRF-CEM leukemia = test system: CCRF-CEM leukemia
MCF7 breast = test system: MCF7 breast
SW-620 colon = test system: SW-620 colon
M14 melanoma = test system: M14 melanoma
CAKI-1 renal = test system: CAKI-1 renal
OVCAR-5 ovarian = test system: OVCAR-5 ovarian
HOP-92 NSCLC = test system: HOP-92 NSCLC
SF-268 CNS = test system: SF-268 CNS
HS 578T breast = test system: HS 578T breast
PC-3 prostate = test system: PC-3 prostate
HCT-15 colon = test system: HCT-15 colon
SK-MEL-28 melanoma = test system: SK-MEL-28 melanoma
SK-MEL-5 melanoma = test system: SK-MEL-5 melanoma
NCI-H460 lung = test system: NCI-H460 lung
HOP-62 NSCLC = test system: HOP-62 NSCLC
BT-549 breast = test system: BT-549 breast
NCI/ADR-RES ovarian = test system: NCI/ADR-RES ovarian
SF-295 CNS = test system: SF-295 CNS
ACHN renal = test system: ACHN renal
A549 NSCLC = test system: A549 NSCLC
OVCAR-4 ovarian = test system: OVCAR-4 ovarian
EKVX NSCLC = test system: EKVX NSCLC
MDA-MB-435 = test system: MDA-MB-435
TK-10 renal = test system: TK-10 renal
OVCAR-3 ovarian = test system: OVCAR-3 ovarian
NCI-H226 lung = test system: NCI-H226 lung
SNB-75 CNS = test system: SNB-75 CNS
MOLT-4 leukemia = test system: MOLT-4 leukemia
UO-31 renal = test system: UO-31 renal
RXF 393 renal = test system: RXF 393 renal
KM12 colon = test system: KM12 colon
U251 CNS = test system: U251 CNS
K-562 leukemia = test system: K-562 leukemia
SK-OV-3 ovarian = test system: SK-OV-3 ovarian
DU-145 prostate = test system: DU-145 prostate
SN12C renal = test system: SN12C renal
T-47D breast = test system: T-47D breast
LOX IMVI melanoma = test system: LOX IMVI melanoma
COLO 205 colon = test system: COLO 205 colon
RPMI-8226 leukemia = test system: RPMI-8226 leukemia
MALME-3M melanoma = test system: MALME-3M melanoma
IGROV1 ovarian = test system: IGROV1 ovarian
HL-60(TB) leukemia = test system: HL-60(TB) leukemia
SK-MEL-2 melanoma = test system: SK-MEL-2 melanoma
HT29 colon = test system: HT29 colon

## COC(=O)[C@@H]1C[C@@]2(C3C=CN(C(=O)C(F)(F)F)C=C3)c3ccccc3N(C(=O)C(F)(F)F)[C@H]2N1C(=O)OC
UACC-62 melanoma
  TGI: > 100 µM
786-0 renal
  TGI: > 100 µM
HCT-116 colon
  TGI: > 100 µM
SR leukemia
  TGI: > 100 µM
UACC-257 melanoma
  TGI: > 100 µM
HCC-2998 colon
  TGI: > 100 µM
NCI-H23 lung
  TGI: > 100 µM
SF-539 CNS
  TGI: > 100 µM
OVCAR-8 ovarian
  TGI: > 100 µM
MDA-MB-231 breast
  TGI: > 100 µM
NCI-H522 lung
  TGI: > 100 µM
SNB-19 CNS
  TGI: > 100 µM
A498 renal
  TGI: > 100 µM
CCRF-CEM leukemia
  TGI: > 100 µM
MCF7 breast
  TGI: > 100 µM
SW-620 colon
  TGI: > 100 µM
M14 melanoma
  TGI: > 100 µM
CAKI-1 renal
  TGI: > 100 µM
OVCAR-5 ovarian
  TGI: > 100 µM
HOP-92 NSCLC
  TGI: > 100 µM
SF-268 CNS
  TGI: > 100 µM
HS 578T breast
  TGI: > 100 µM
PC-3 prostate
  TGI: > 100 µM
HCT-15 colon
  TGI: > 100 µM
SK-MEL-28 melanoma
  TGI: > 100 µM
SK-MEL-5 melanoma
  TGI: > 100 µM
NCI-H460 lung
  TGI: > 100 µM
HOP-62 NSCLC
  TGI: > 100 µM
BT-549 breast
  TGI: > 100 µM
NCI/ADR-RES ovarian
  TGI: > 100 µM
SF-295 CNS
  TGI: > 100 µM
ACHN renal
  TGI: > 100 µM
A549 NSCLC
  TGI: > 100 µM
OVCAR-4 ovarian
  TGI: > 100 µM
EKVX NSCLC
  TGI: > 100 µM
MDA-MB-435
  TGI: > 100 µM
TK-10 renal
  TGI: 60.5 µM
OVCAR-3 ovarian
  TGI: > 100 µM
NCI-H226 lung
  TGI: > 100 µM
SNB-75 CNS
  TGI: > 100 µM
MOLT-4 leukemia
  TGI: > 100 µM
UO-31 renal
  TGI: > 100 µM
RXF 393 renal
  TGI: 60.4 µM
KM12 colon
  TGI: > 100 µM
U251 CNS
  TGI: > 100 µM
K-562 leukemia
  TGI: > 100 µM
SK-OV-3 ovarian
  TGI: > 100 µM
DU-145 prostate
  TGI: > 100 µM
SN12C renal
  TGI: > 100 µM
T-47D breast
  TGI: > 100 µM
LOX IMVI melanoma
  TGI: > 100 µM
COLO 205 colon
  TGI: > 100 µM
RPMI-8226 leukemia
  TGI: > 100 µM
MALME-3M melanoma
  TGI: > 100 µM
IGROV1 ovarian
  TGI: > 100 µM
HL-60(TB) leukemia
  TGI: > 100 µM

## COc1ccc(C2CC(n3nnnc3-c3ccccc3)=NN2)cc1 (stereo unspecified)
UACC-62 melanoma
  GI50: 0.465 µM
  TGI: 12.5 µM
786-0 renal
  GI50: 4.61 µM
  TGI: 37.3 µM
HCT-116 colon
  GI50: 4.87 µM
  TGI: 22.3 µM
SR leukemia
  GI50: 35.6 µM
  TGI: > 100 µM
UACC-257 melanoma
  GI50: 2.76 µM
  TGI: 12.6 µM
HCC-2998 colon
  GI50: 3.41 µM
  TGI: 17.2 µM
SK-MEL-2 melanoma
  GI50: 11.6 µM
  TGI: 32.7 µM
NCI-H23 lung
  GI50: 10.8 µM
  TGI: 41.7 µM
SF-539 CNS
  GI50: 2.34 µM
  TGI: 5.87 µM
OVCAR-8 ovarian
  GI50: 4.07 µM
  TGI: 61.7 µM
MDA-MB-231 breast
  GI50: 0.564 µM
  TGI: 12.8 µM
NCI-H522 lung
  GI50: 1.16 µM
  TGI: 20.4 µM
SNB-19 CNS
  GI50: 18.1 µM
  TGI: > 100 µM
A498 renal
  GI50: 18.6 µM
  TGI: 55.1 µM
CCRF-CEM leukemia
  GI50: 0.499 µM
  TGI: 51.1 µM
MCF7 breast
  GI50: 2.68 µM
  TGI: 38.7 µM
SW-620 colon
  GI50: 2.82 µM
  TGI: 25.1 µM
M14 melanoma
  GI50: 0.6 µM
  TGI: 14.6 µM
CAKI-1 renal
  GI50: 0.38 µM
  TGI: 2.98 µM
OVCAR-5 ovarian
  GI50: 5.59 µM
  TGI: 61.7 µM
HOP-92 NSCLC
  GI50: 11.6 µM
  TGI: 42.6 µM
SF-268 CNS
  GI50: 6.38 µM
  TGI: 54.5 µM
HS 578T breast
  GI50: 19.7 µM
  TGI: 70.3 µM
PC-3 prostate
  GI50: 6.28 µM
  TGI: 72.3 µM
HCT-15 colon
  GI50: 2.16 µM
  TGI: 26.2 µM
SK-MEL-28 melanoma
  GI50: 13.3 µM
  TGI: > 100 µM
SK-MEL-5 melanoma
  GI50: 2.12 µM
  TGI: 7.81 µM
NCI-H460 lung
  GI50: 2.84 µM
  TGI: 13.7 µM
HOP-62 NSCLC
  GI50: 12.8 µM
  TGI: 45.8 µM
BT-549 breast
  GI50: 8.89 µM
  TGI: 37.6 µM
NCI/ADR-RES ovarian
  GI50: 4.3 µM
  TGI: 33.7 µM
SF-295 CNS
  GI50: 0.662 µM
  TGI: 3.12 µM
ACHN renal
  GI50: 1.44 µM
  TGI: 22.4 µM
OVCAR-4 ovarian
  GI50: 1.11 µM
  TGI: 94.8 µM
EKVX NSCLC
  GI50: 1.8 µM
  TGI: 36.3 µM
MDA-MB-435
  GI50: 0.974 µM
  TGI: 15.6 µM
HT29 colon
  GI50: 2.82 µM
  TGI: 17.9 µM
OVCAR-3 ovarian
  GI50: 3.05 µM
  TGI: 12 µM
NCI-H226 lung
  GI50: 4.98 µM
  TGI: 22.8 µM
SNB-75 CNS
  GI50: 14.4 µM
  TGI: 54 µM
MOLT-4 leukemia
  GI50: 5.99 µM
  TGI: 42.6 µM
UO-31 renal
  GI50: 1.39 µM
  TGI: 11.7 µM
RXF 393 renal
  GI50: 21.1 µM
  TGI: 95.6 µM
KM12 colon
  GI50: 0.617 µM
  TGI: 13.6 µM
U251 CNS
  GI50: 9.88 µM
  TGI: 35.9 µM
K-562 leukemia
  GI50: 0.486 µM
  TGI: 28.2 µM
SK-OV-3 ovarian
  GI50: 22.4 µM
  TGI: 66.1 µM
DU-145 prostate
  GI50: 12.9 µM
  TGI: 49.3 µM
SN12C renal
  GI50: 12.7 µM
  TGI: > 100 µM
T-47D breast
  GI50: 1.16 µM
  TGI: 87.3 µM
LOX IMVI melanoma
  GI50: 0.693 µM
  TGI: 15.2 µM
COLO 205 colon
  GI50: 3.5 µM
  TGI: 11.7 µM
RPMI-8226 leukemia
  GI50: 2.88 µM
  TGI: 53.5 µM
MALME-3M melanoma
  GI50: 2.66 µM
  TGI: 20.3 µM
IGROV1 ovarian
  GI50: 2.44 µM
  TGI: > 100 µM

Source: PubChem BioAssay (NCI)
